In paper PMC9180903, “Substituted Syndecan-2-Derived Mimetic Peptides Show Improved Antitumor Activity over the Parent Syndecan-2-Derived Peptide” (International Journal of Molecular Sciences, 2022):
Ends that are not written are not given here.

Experiments:
MMPs = system: MMPs; design: method as in PMID 29735645, PMID 9484924, PMID 10100701, PMID 12085177; conditions: batimastat phase I, marimastat phase III; cited from earlier work
[1] = molecular target: T1, pro-domain of MMP-7 (PDMMP-7) (Homo sapiens, UniProt P09237); assay: Fluorescence titration of peptides against MMP-7 pro-domain; assay type: binding; conditions: fluorescence spectroscopy; for Kd: ex 280 nm, em 347 nm, 10 μM PDMMP-7, peptide titrated up to 1:80, PBS pH 7.4, 25 °C
T1 construct: TRX-His tag (N, cleaved yes); made in house
T1 sequence (P09237 18-94 limits assumed): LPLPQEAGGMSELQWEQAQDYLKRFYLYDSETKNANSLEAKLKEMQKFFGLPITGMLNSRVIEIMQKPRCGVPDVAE
Method: The gene encoding the pro-domain sequence (PDMMP-7) was cloned into the pET32a vector, which has a TRX-His tag at the N-terminus, for protein expression and purification. Between the TRX-His tag and the pro-domain, a TEV cleavage sequence was inserted. Proteins were overexpressed with 1 mM IPTG and isolated using Ni-NTA affinity chromatography. The purified TRX-His tag-PDMMP-7 was incubated with TEV protease at a 1:1 molar ratio for 12 h. The reaction mixture was further purified in phosphate-buffered saline (PBS) buffer at pH 7.4 using a HiLoad^TM superdex^TM 75 column (GE Healthcare, Little Chalfont, UK) to remove tags. The final protein sample was concentrated to 14 mg/mL for the fluorescence experiment.
The binding affinity between the PDMMP-7 and each synthetic peptide was measured at 298 K (25 °C) using an LS55 fluorescence spectrophotometer (Perkin Elmer, Waltham, MA, USA) at wavelengths of 280 nm (excitation) and 300–450 nm (emission). PDMMP-7 and peptides were prepared in phosphate-buffered saline (PBS) buffer at pH 7.4. The concentration of PDMMP-7 was set at 10 μM, and the input amount of each peptide versus PDMMP-7 was titrated at a molar ratio up to 1:80 using a thermostat cuvette. The dissociation constant (Kd) of the PDMMP-7/peptide complex was calculated using the equation log[(Fo − F)/F] = log(1/Kd) + nlog[ligand], where Fo and F represent the fluorescence intensity of PDMMP-7 at 347 nm in the absence and presence of the peptide, respectively, and n represents the number of binding sites.

HCT116 cells = assay: MTT assay; assay type: cell-based, human; conditions: 50 nM peptide
Method: (§1) Cell proliferation was measured by a colorimetric assay using 3-(4,5-dimethythiazol-2-yl) 2,5-diphenyltetrazolium bromide (MTT; Amresco, Solon, OH, USA) according to the manufacturer’s instructions. Briefly, cells were harvested with 0.05% trypsin/EDTA and seeded to 48-well plates (Thermo Fisher Scientific). After cells were allowed to attach to the plate for 24 h, medium containing 0.5 mg/mL MTT was added to each plate and incubation was continued for 1 h. The medium was then removed, and 200 μL of dimethyl sulfoxide (DMSO) was added to each plate for 30 min at room temperature. The mean concentration of absorbance at 570 nm in each set of samples was measured using a 96-well microtiter plate reader (Dynatech, Chantilly, VA, USA).

HT29-SDC2 cells = assay: MTT assay; assay type: cell-based, human; conditions: 50 nM, up to 48 h
Method: as §1

[2] = molecular target: T2, pro-domain of matrix metalloproteinase-7 (MMP-7); assay: other fluorescence titration; intrinsic fluorescence of PDMMP-7 (10 μM; excitation 280 nm, emission 300-450 nm, read at 347 nm), peptide titrated up to a molar ratio of 1:80, PBS pH 7.4, 298 K (25 °C)
T2 sequence (P09237 whole entry, species assumed, looked up): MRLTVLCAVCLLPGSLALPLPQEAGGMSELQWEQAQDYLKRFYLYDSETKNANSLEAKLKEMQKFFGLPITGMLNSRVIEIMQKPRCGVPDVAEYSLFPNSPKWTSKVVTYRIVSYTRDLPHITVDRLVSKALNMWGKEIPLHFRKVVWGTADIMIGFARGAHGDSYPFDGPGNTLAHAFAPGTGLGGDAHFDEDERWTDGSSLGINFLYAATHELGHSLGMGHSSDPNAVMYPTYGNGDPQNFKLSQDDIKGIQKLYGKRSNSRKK

Molecule	Kd [1] [µM]	Kd [2] [µM]	also measured
CNC(=O)[C@@H](NC(=O)[C@H](CC(C)C)[C@H](O)C(=O)NO)C(C)(C)C [marimastat]			side effects in clinical trials (MMPs): significant musculoskeletal toxicity
SGVYPIDDDDYASASGSGAD [S2-P]	1220		
SGVYPIDDDDYDSASGSGAD [S2-D]	550		cytotoxicity in HCT116 cells (HCT116 cells): did not exert cytotoxicity; cytotoxicity against HT29-SDC2 cells (HT29-SDC2 cells): Neither peptide showed cytotoxicity
SGVYPIDDFDYESASGSGAD [S2-FE]	456		cytotoxicity in HCT116 cells (HCT116 cells): did not exert cytotoxicity; cytotoxicity against HT29-SDC2 cells (HT29-SDC2 cells): Neither peptide showed cytotoxicity
SGVYPIDDLDYASASGSGAD [S2-L, modified SDC2-mimetic peptide derived from S2-P]			binding to the MMP-7 pro-domain compared to S2-P ([1]; PBS pH 7.4, 25 °C): reduced binding
SGVYPIFDLDYDSASGSGAD [S2-FLD]	64		
SGVYPIDDFDYESASGSGAD [S2-FE, SDC2-mimetic peptide]		456	
SGVYPIDDDDYDSASGSGAD [S2-D, SDC2-mimetic peptide with an Ala-to-Asp substitution at the C-terminal side of Tyr 51]		550	
SGVYPIFDLDYDSASGSGAD [S2-FLD, SDC2-mimetic peptide]		64	
SGVYPIDDDDYASASGSGAD [S2-P, synthetic peptide corresponding to human SDC2 extracellular domain residues 41-60]		1220	
